# Measurements taken from patent US12617790B2, “Mitragynine analogs and uses thereof” (Memorial Sloan-Kettering Cancer Center, priority 2015, dated 2026).
# pKi: −log10 of the molar value. Like-named read-outs stand apart in the source and are kept apart here.
# Legend:
# [1] = target: T1, MOR-1 (Mus musculus, UniProt P42866); test: Competition binding against 125I-IBNtxA in MOR-1/CHO membranes
# T1 construct: expressed in transfected cells; host or cells: CHO
# [2] = target: T2, KOR-1 (Mus musculus, UniProt P33534); test: Competition binding against 125I-IBNtxA in KOR-1/CHO membranes; settings: 125I-IBNtxA (0.1 nM), CHO membranes, cloned mouse receptor; read-out: Affinity (Ki nM) KOR-1
# T2 construct: expressed in transfected cells; host or cells: CHO
# [3] = target: T3, DOR-1 (Mus musculus, UniProt P32300); test: Competition binding against 125I-IBNtxA in DOR-1/CHO membranes; settings: 125I-IBNtxA (0.1 nM), CHO membranes, cloned mouse receptor; read-out: Affinity (Ki nM) DOR-1
# T3 construct: expressed in transfected cells; host or cells: CHO
structure (smiles),measurement,setting,value
"CC[C@@H]1CN2CC[C@@]3(C(=O)c4c(OC)cccc4N3C)C2C[C@@H]1/C(=C\OC)C(=O)OC (stereo partly drawn) [VM1503, (E)-methyl 2-((1'S,6'S,7'S)-6′-ethyl-4-methoxy-1-methyl-3-oxo-3′,5′,6′,7′,8′,8a′-hexahydro-2′H-spiro[indoline-2,1′-indolizine]-7′-yl)-3-methoxyacrylate]",pKi,[1],6.43
same,Ki,[2],> 1000 nM
same,Ki,[3],> 1000 nM
"CC[C@@H]1CN2CC[C@@]3(C(=O)c4c(OC)cccc4N3Cc3ccccc3)C2C[C@@H]1/C(=C\OC)C(=O)OC (stereo partly drawn) [VM1505, (E)-methyl 2-((1'S,6'S,7'S)-1-benzyl-6′-ethyl-4-methoxy-3-oxo-3′,5′,6′,7′,8′,8a′-hexahydro-2′H-spiro[indoline-2,1′-indolizine]-7′-yl)-3-methoxyacrylate]",pKi,[1],6.60
same,Ki,[2],136 nM
same,Ki,[3],258 nM
"CC[C@@H]1CN2CCC3(Nc4ccc(Cl)c(OC)c4C3=O)C2C[C@@H]1/C(=C\OC)C(=O)OC (stereo partly drawn) [VM1516, Methyl (E)-2-((6'S,7'S)-5-chloro-6′-ethyl-4-methoxy-3-oxo-2′,3′,6′,7′,8′,8a′-hexahydro-5′H-spiro[indoline-2,1′-indolizin]-7′-yl)-3-methoxyacrylate]",pKi,[1],9.39
same,Ki,[2],12 nM
same,Ki,[3],2.1 nM
"CC[C@@H]1CN2CCc3c([nH]c4ccc(Br)c(OC)c34)C2C[C@@H]1/C(=C\OC)C(=O)OC (stereo partly drawn) [VM1517, Methyl (E)-2-((2S,3S)-9-bromo-3-ethyl-8-methoxy-1,2,3,4,6,7,12,12b-octahydroindolo[2,3-a]quinolizin-2-yl)-3-methoxyacrylate]",pKi,[1],6.98
same,Ki,[2],195 nM
same,Ki,[3],847 nM
"CC[C@@H]1CN2CCc3c([nH]c4ccc(-c5ccoc5)c(OC)c34)C2C[C@@H]1/C(=C\OC)C(=O)OC (stereo partly drawn) [VM1519, Methyl (E)-2-((2S,3S)-3-ethyl-9-(furan-3-yl)-8-methoxy-1,2,3,4,6,7,12,12b-octahydroindolo[2,3-a]quinolizin-2-yl)-3-methoxyacrylate]",pKi,[1],6.55
same,Ki,[2],129 nM
same,Ki,[3],653 nM
"CC[C@@H]1CN2CCc3c([nH]c4c(-c5ccoc5)ccc(OC)c34)C2C[C@@H]1/C(=C\OC)C(=O)OC (stereo partly drawn) [VM1520, Methyl (E)-2-((2S,3S)-3-ethyl-11-(furan-3-yl)-8-methoxy-1,2,3,4,6,7,12,12b-octahydroindolo[2,3-a]quinolizin-2-yl)-3-methoxyacrylate]",pKi,[1],6.56
same,Ki,[2],185 nM
same,Ki,[3],617 nM
"CC[C@@H]1CN2CCc3c([nH]c4ccc(-c5ccccc5)c(OC)c34)C2C[C@@H]1/C(=C\OC)C(=O)OC (stereo partly drawn) [VM1521, Methyl (E)-2-((2S,3S)-3-ethyl-9-(phenyl)-8-methoxy-1,2,3,4,6,7,12,12b-octahydroindolo[2,3-a]quinolizin-2-yl)-3-methoxyacrylate]",pKi,[1],6.44
same,Ki,[2],204 nM
same,Ki,[3],> 1000 nM
"CC[C@@H]1CN2CC[C@@]3(O)C(=Nc4ccc(-c5ccoc5)c(OC)c43)C2C[C@@H]1/C(=C\OC)C(=O)OC (stereo partly drawn) [VM1523, Methyl (E)-2-((2S,3S,7aS)-3-ethyl-9-(furan-3-yl)-7a-hydroxy-8-methoxy-1,2,3,4,6,7,7a,12b-octahydroindolo[2,3-a]quinolizin-2-yl)-3-methoxyacrylate]",pKi,[1],7.44
same,Ki,[2],36 nM
same,Ki,[3],109 nM
"CC[C@@H]1CN2CC[C@@]3(O)C(=Nc4c(-c5ccoc5)ccc(OC)c43)C2C[C@@H]1/C(=C\OC)C(=O)OC (stereo partly drawn) [VM1524, Methyl (E)-2-((2S,3S,7aS)-3-ethyl-11-(furan-3-yl)-7a-hydroxy-8-methoxy-1,2,3,4,6,7,7a,12b-octahydroindolo[2,3-a]quinolizin-2-yl)-3-methoxyacrylate]",pKi,[1],6.93
same,Ki,[2],338 nM
same,Ki,[3],> 1000 nM
"CC[C@@H]1CN2CC[C@@]3(N4CCCCC4)C(=Nc4cccc(OC)c43)[C@@H]2C[C@@H]1/C(=C\OC)C(=O)OC [VM1526, Methyl (E)-2-((2S,3S,7aS,12bS)-3-ethyl-8-methoxy-7a-(piperidin-1-yl)-1,2,3,4,6,7,7a,12b-octahydroindolo[2,3-a]quinolizin-2-yl)-3-methoxyacrylate]",pKi,[1],6.61
same,Ki,[2],72 nM
same,Ki,[3],369 nM
"COC(=O)CC1CCN2CC[C@@]3(O)C(=Nc4cccc(OC)c43)C2C1 (stereo partly drawn) [VM1531, Methyl 2-((7aS)-7a-hydroxy-8-methoxy-1,2,3,4,6,7,7a,12b-octahydroindolo[2,3-a]quinolizin-2-yl)acetate]",pKi,[1],< 6.00
same,Ki,[2],> 1000 nM
same,Ki,[3],> 1000 nM
"CC[C@@H]1CN2CCc3c(n(Cc4ccccc4)c4cccc(OC)c34)[C@@H]2C[C@@H]1/C(=C\OC)C(=O)OC [VM1533, Methyl (E)-2-((2S,3S,12bS)-12-benzyl-3-ethyl-8-methoxy-1,2,3,4,6,7,12,12b-octahydroindolo[2,3-a]quinolizin-2-yl)-3-methoxyacrylate]",pKi,[1],7.03
same,Ki,[2],395 nM
same,Ki,[3],> 1000 nM
"CC[C@@H]1CN2CCc3c([nH]c4cccc(OC)c34)[C@@H]2C[C@@H]1/C(=C\OC)CO [VM1534, (E)-2-((2S,3S,12bS)-3-ethyl-8-methoxy-1,2,3,4,6,7,12,12b-octahydroindolo[2,3-a]quinolizin-2-yl)-3-methoxyprop-2-en-1-ol]",pKi,[1],< 6.00
"C=C(COC)[C@H]1C[C@H]2c3[nH]c4cccc(OC)c4c3CCN2C[C@H]1CC [VM1535, (2S,3S,12bS)-3-ethyl-8-methoxy-2-(3-methoxyprop-1-en-2-yl)-1,2,3,4,6,7,12,12b-octahydroindolo[2,3-a]quinolizine]",pKi,[1],< 6.00
"CC[C@@H]1CN2CCc3c([nH]c4cccc(OC)c34)[C@@H]2C[C@@H]1[C@@H](C)COC [VM1536, (2S,3S,12bS)-3-ethyl-8-methoxy-2-((R)-1-methoxypropan-2-yl)-1,2,3,4,6,7,12,12b-octahydroindolo[2,3-a]quinolizine]",pKi,[1],< 6.00
"CC[C@@H]1CN2CC[C@@]3(OC)C(=Nc4cccc(OC)c43)[C@@H]2C[C@@H]1/C(=C\OC)C(=O)OC [VM1537, Methyl (E)-2-((2S,3S,7aS,12bS)-3-ethyl-7a,8-dimethoxy-1,2,3,4,6,7,7a,12b-octahydroindolo[2,3-a]quinolizin-2-yl)-3-methoxyacrylate]",pKi,[1],6.72
same,Ki,[2],90 nM
same,Ki,[3],997 nM
CC[C@@H]1CN2CCc3c([nH]c4cccc(-c5ccoc5)c34)[C@@H]2C[C@@H]1/C(=C\OC)C(=O)OC [VM1539],Ki,"[1]; read-out: Affinity (Ki nM) MOR-1, 125I-IBNtxA (0.1 nM), CHO membranes, cloned mouse receptor",52 nM
same,Ki,[2],14 nM
same,Ki,[3],332 nM
"CC[C@@H]1CN2CCc3c(n(C)c4cccc(OC)c34)[C@@H]2C[C@@H]1/C(=C\OC)C(=O)OC [VM1541, Methyl (E)-2-((2S,3S,12bS)-3-ethyl-8-methoxy-12-methyl-1,2,3,4,6,7,12,12b-octahydroindolo[2,3-a]quinolizin-2-yl)-3-methoxyacrylate]",pKi,[1],6.79
same,Ki,[2],143 nM
same,Ki,[3],> 1000 nM
"CC[C@@H]1CN2CCC3c4c(cccc4OC)NC3[C@@H]2C[C@@H]1/C(=C\OC)C(=O)OC (stereo partly drawn) [VM1542, Methyl (E)-2-((2S,3S,12bS)-3-ethyl-8-methoxy-1,2,3,4,6,7,7a,12,12a,12b-decahydroindolo[2,3-a]quinolizin-2-yl)-3-methoxyacrylate]",pKi,[1],6.94
same,Ki,[2],329 nM
same,Ki,[3],374 nM
